Assays:
[1] = biological target: Glutamate carboxypeptidase 2 (Homo sapiens, UniProt Q04609); assay: Inhibition of PSMA derived from human LNCaP cell lysate assessed as inhibition of NAAG hydrolysis incubated for 2 hrs in presence of NAAG by Amplex Red assay; type: subcellular
[2] = Cytotoxicity against human WI-38 VA13 cells assessed as cell growth inhibition incubated for 5 days by MTT assay; type: toxicity, cell-based; conditions: time 5 day
MCF7 = assay: Cytotoxicity against human MCF7 cells assessed as cell growth inhibition incubated for 5 days by MTT assay; type: functional; conditions: MCF7, 120 h, time 5 day
A549 = assay: Cytotoxicity against human A549 cells assessed as cell growth inhibition incubated for 5 days by MTT assay; type: functional; conditions: A549, 120 h, time 5 day
[3] = Cytotoxicity against HEK293T cells assessed as cell growth inhibition incubated for 5 days by MTT assay; type: toxicity, cell-based, HEK-293T; conditions: human, time 5 day
PC-3 = assay: Cytotoxicity against human PC-3 cells assessed as reduction in cell viability incubated for 5 days by MTT assay; type: functional; conditions: PC-3, 120 h, time 5 day
LNCaP = assay: Cytotoxicity against human LNCaP cells assessed as reduction in cell viability incubated for 5 days by MTT assay; type: functional; conditions: 120 h, time 5 day
[4] = Chronic toxicity in Soviet Chinchilla rabbit assessed as signs of intoxication at 120 to 243 mg/kg, iv administered once every 3 weeks; type: organism-based, Oryctolagus cuniculus; conditions: in vivo, 504 h, dose 120-243 mg/kg
[5] = Chronic toxicity in Soviet Chinchilla rabbit assessed as change in spleen histology at 120 to 243 mg/kg, iv administered once every 3 weeks; type: organism-based, Oryctolagus cuniculus; conditions: in vivo, 504 h, dose 120-243 mg/kg
[6] = Chronic toxicity in Soviet Chinchilla rabbit assessed as change in liver histology at 120 to 243 mg/kg, iv administered once every 3 weeks; type: organism-based, Oryctolagus cuniculus; conditions: in vivo, 504 h, dose 120-243 mg/kg
[7] = Chronic toxicity in Soviet Chinchilla rabbit assessed as change in blood albumin content at 120 to 243 mg/kg, iv administered once every 3 weeks; type: organism-based, Oryctolagus cuniculus; conditions: in vivo, 504 h, dose 120-243 mg/kg
[8] = Chronic toxicity in Soviet Chinchilla rabbit assessed as change in lung histology at 120 to 243 mg/kg, iv administered once every 3 weeks; type: organism-based, Oryctolagus cuniculus; conditions: in vivo, 504 h, dose 120-243 mg/kg
[9] = Chronic toxicity in Soviet Chinchilla rabbit assessed as change in kidney histology at 120 to 243 mg/kg, iv administered once every 3 weeks; type: organism-based, Oryctolagus cuniculus; conditions: in vivo, 504 h, dose 120-243 mg/kg
[10] = Chronic toxicity in Soviet Chinchilla rabbit assessed as change in heart histology at 120 to 243 mg/kg, iv administered once every 3 weeks; type: organism-based, Oryctolagus cuniculus; conditions: in vivo, 504 h, dose 120-243 mg/kg
[11] = Chronic toxicity in Soviet Chinchilla rabbit assessed as change in brain histology at 120 to 243 mg/kg, iv administered once every 3 weeks; type: organism-based, Oryctolagus cuniculus; conditions: in vivo, 504 h, dose 120-243 mg/kg
[12] = Drug uptake in human 22Rv1 cells assessed as drug accumulation by measuring fluorescence signal at 4 uM incubated for 30 mins by flow cytometry; type: ADME, cell-based; conditions: cwr22r, 0.5 h
[13] = Drug uptake in human LNCaP cells assessed as drug accumulation by measuring fluorescence signal at 4 uM incubated for 30 mins by flow cytometry; type: ADME, cell-based; conditions: 0.5 h
[14] = Drug uptake in human PC-3 cells assessed as drug accumulation by measuring fluorescence signal at 4 uM incubated for 30 mins by flow cytometry; type: ADME, cell-based; conditions: pc-3, 0.5 h

Sequence of Glutamate carboxypeptidase 2 (Q04609 whole entry): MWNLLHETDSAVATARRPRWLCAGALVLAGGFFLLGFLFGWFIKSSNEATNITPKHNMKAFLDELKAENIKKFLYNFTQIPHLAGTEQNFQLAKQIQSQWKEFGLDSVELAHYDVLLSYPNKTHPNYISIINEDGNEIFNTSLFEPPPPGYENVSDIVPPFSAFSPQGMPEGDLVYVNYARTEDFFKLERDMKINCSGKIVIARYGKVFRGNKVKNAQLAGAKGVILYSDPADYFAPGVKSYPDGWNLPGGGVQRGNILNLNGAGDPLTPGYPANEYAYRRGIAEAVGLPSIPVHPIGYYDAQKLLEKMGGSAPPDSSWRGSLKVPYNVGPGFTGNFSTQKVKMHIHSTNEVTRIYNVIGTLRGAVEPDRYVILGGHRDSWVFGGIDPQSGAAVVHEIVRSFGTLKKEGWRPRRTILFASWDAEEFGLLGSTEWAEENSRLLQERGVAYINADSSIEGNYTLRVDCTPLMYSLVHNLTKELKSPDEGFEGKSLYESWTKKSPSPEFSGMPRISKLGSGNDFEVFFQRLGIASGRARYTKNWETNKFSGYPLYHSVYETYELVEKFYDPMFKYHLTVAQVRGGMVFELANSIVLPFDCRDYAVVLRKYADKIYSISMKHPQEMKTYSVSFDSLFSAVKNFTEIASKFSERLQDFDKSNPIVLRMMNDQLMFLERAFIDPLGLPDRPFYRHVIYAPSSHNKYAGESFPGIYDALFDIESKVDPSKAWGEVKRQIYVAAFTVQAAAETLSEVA

Row | SMILES | IC50 [1] [µM] | CC50 at 120 h [2] [µM] | CC50 (MCF7) [µM] | CC50 (A549) [µM] | CC50 at 120 h [3] [µM] | other results
1 | [N-]=[N+]=NCCCNC(=O)[C@@H](Cc1ccccc1)NC(=O)[C@@H](Cc1ccccc1)NC(=O)CCC(=O)NCCCCCC(=O)N(CCCC[C@H](NC(=O)N[C@@H](CCC(=O)O)C(=O)O)C(=O)O)Cc1cccc(Cl)c1 | 0.046 | – | – | – | – | –
2 | [N-]=[N+]=NCCCNC(=O)[C@H](Cc1ccc(O)cc1)NC(=O)[C@H](Cc1ccccc1)NC(=O)CCC(=O)NCCCCCC(=O)N(CCCC[C@H](NC(=O)N[C@@H](CCC(=O)O)C(=O)O)C(=O)O)Cc1ccc(Cl)c(F)c1 | 0.062 | > 100 | > 100 | > 100 | > 100 | –
3 | [N-]=[N+]=NCCCNC(=O)[C@H](Cc1ccccc1)NC(=O)[C@H](Cc1ccccc1)NC(=O)CCC(=O)NCCCCCC(=O)N(CCCC[C@H](NC(=O)N[C@@H](CCC(=O)O)C(=O)O)C(=O)O)Cc1ccc(Cl)cc1 | 0.055 | – | – | – | – | –
4 | [N-]=[N+]=NCCCNC(=O)[C@@H](Cc1ccc(O)c(Br)c1)NC(=O)[C@@H](Cc1ccccc1)NC(=O)CCC(=O)NCCCCCC(=O)N(CCCC[C@H](NC(=O)N[C@@H](CCC(=O)O)C(=O)O)C(=O)O)Cc1cccc(Cl)c1 | 0.08 | – | – | – | – | –
5 | [N-]=[N+]=NCCCNC(=O)[C@@H](Cc1ccccc1)NC(=O)[C@@H](Cc1ccccc1)NC(=O)CCC(=O)NCCCCCC(=O)N(CCCC[C@H](NC(=O)N[C@@H](CCC(=O)O)C(=O)O)C(=O)O)Cc1ccc(Cl)cc1 | 0.226 | – | – | – | – | –
6 | [N-]=[N+]=NCCCNC(=O)[C@H](Cc1ccccc1)NC(=O)[C@H](Cc1ccccc1)NC(=O)CCC(=O)NCCCCCC(=O)N(CCCC[C@H](NC(=O)N[C@@H](CCC(=O)O)C(=O)O)C(=O)O)Cc1ccc(Cl)c(F)c1 | 0.063 | > 100 | > 100 | > 100 | 71 | –
7 | [N-]=[N+]=NCCCNC(=O)[C@H](Cc1ccccc1)NC(=O)[C@H](Cc1ccccc1)NC(=O)CCC(=O)NCCCCCC(=O)N(CCCC[C@H](NC(=O)N[C@@H](CCC(=O)O)C(=O)O)C(=O)O)Cc1ccc(Cl)cc1F | 0.043 | > 100 | > 100 | > 100 | > 100 | –
8 | [N-]=[N+]=NCCCNC(=O)[C@H](Cc1ccccc1)NC(=O)[C@H](Cc1ccccc1)NC(=O)CCC(=O)NCCCC(=O)N(CCCC[C@H](NC(=O)N[C@@H](CCC(=O)O)C(=O)O)C(=O)O)Cc1ccccc1 | 0.175 | > 100 | > 100 | > 100 | > 100 | –
9 | [N-]=[N+]=NCCCNC(=O)[C@H](Cc1ccccc1)NC(=O)[C@H](Cc1ccccc1)NC(=O)CCC(=O)NCCCCCC(=O)N(CCCC[C@H](NC(=O)N[C@@H](CCC(=O)O)C(=O)O)C(=O)O)Cc1ccccc1 | 0.028 | > 100 | > 100 | > 100 | 114 | –
10 | [N-]=[N+]=NCCCNC(=O)[C@H](Cc1ccccc1)NC(=O)[C@H](Cc1ccccc1)NC(=O)CCC(=O)NCCCCCC(=O)N(CCCC[C@H](NC(=O)N[C@@H](CCC(=O)O)C(=O)O)C(=O)O)Cc1cccc(Cl)c1 | 0.038 | – | – | – | – | –
11 | NCCCC[C@H](NC(=O)N[C@@H](CCC(=O)O)C(=O)O)C(=O)O | – | > 100 | > 100 | > 100 | > 100 | –
12 | CN1/C(=C/C=C2C=C(/C=C/C3=[N+](CCCCCC(=O)O)c4ccc(S(=O)(=O)[O-])cc4C3(C)C)CCC/2)C(C)(C)c2cc(S(=O)(=O)O)ccc21 | – | – | – | – | – | Activity [4]: Non-Toxic; Activity [5]: Non-Toxic; Activity [6]: Non-Toxic; CC50 (PC-3): > 100 µM; Activity [7]: Toxic; Activity [8]: Non-Toxic; Activity [9]: Non-Toxic; CC50 (LNCaP): > 100 µM; Activity [10]: Non-Toxic; Activity [11]: Non-Toxic
13 | CN1/C(=C/C=C/C=C/C2=[N+](CCCCCC(=O)O)c3ccc(S(=O)(=O)[O-])cc3C2(C)C)C(C)(C)c2cc(S(=O)(=O)O)ccc21 | – | – | – | – | – | Drug uptake [12]: 57.5%; CC50 (PC-3): > 100 µM; Drug uptake [13]: 98.4%; Drug uptake [14]: 41.1%; CC50 (LNCaP): > 100 µM
14 | [N-]=[N+]=NCCCNC(=O)[C@H](Cc1ccccc1)NC(=O)[C@H](Cc1ccccc1)NC(=O)CCC(=O)NCCCCCC(=O)NCCCC[C@H](NC(=O)N[C@@H](CCC(=O)O)C(=O)O)C(=O)O | – | > 100 | > 100 | > 100 | 62 | –
15 | [N-]=[N+]=NCCCNC(=O)[C@@H](Cc1ccccc1)NC(=O)[C@@H](Cc1ccccc1)NC(=O)CCC(=O)NCCCCCC(=O)N(CCCC[C@H](NC(=O)N[C@@H](CCC(=O)O)C(=O)O)C(=O)O)Cc1ccc(Cl)c(F)c1 | 0.294 | > 100 | > 100 | > 100 | 51 | –

Now from value to molecule, other results behind:

Row | IC50 [1] [µM] | SMILES | CC50 at 120 h [2] [µM] | CC50 (MCF7) [µM] | CC50 (A549) [µM] | CC50 at 120 h [3] [µM] | other results
16 | 0.05 | [N-]=[N+]=NCCCNC(=O)[C@H](Cc1ccccc1)NC(=O)[C@H](Cc1ccccc1)NC(=O)CCC(=O)NCCCCCC(=O)N(CCCC[C@H](NC(=O)N[C@@H](CCC(=O)O)C(=O)O)C(=O)O)Cc1ccc(Br)cc1 | > 100 | > 100 | > 100 | > 100 | –
17 | 0.027 | [N-]=[N+]=NCCCNC(=O)[C@@H](Cc1ccc(O)cc1)NC(=O)[C@@H](Cc1ccccc1)NC(=O)CCC(=O)NCCCCCC(=O)N(CCCC[C@H](NC(=O)N[C@@H](CCC(=O)O)C(=O)O)C(=O)O)Cc1ccc(Cl)cc1 | – | – | – | – | –
18 | 0.108 | [N-]=[N+]=NCCCNC(=O)[C@@H](Cc1ccc(O)cc1)NC(=O)[C@@H](Cc1ccccc1)NC(=O)CCC(=O)NCCCCCC(=O)N(CCCC[C@H](NC(=O)N[C@@H](CCC(=O)O)C(=O)O)C(=O)O)Cc1ccc(Cl)c(F)c1 | – | – | – | – | –
19 | 0.003 | [N-]=[N+]=NCCCNC(=O)[C@H](Cc1ccc(O)cc1)NC(=O)[C@H](Cc1ccccc1)NC(=O)CCC(=O)NCCCCCC(=O)N(CCCC[C@H](NC(=O)N[C@@H](CCC(=O)O)C(=O)O)C(=O)O)Cc1cccc(Cl)c1 | > 100 | > 100 | > 100 | > 100 | CC50 (PC-3): > 100 µM; Ki [1]: 0.001 µM; CC50 (LNCaP): > 100 µM
20 | 0.319 | [N-]=[N+]=NCCCNC(=O)[C@@H](Cc1ccccc1)NC(=O)[C@@H](Cc1ccccc1)NC(=O)CCC(=O)NCCCCCC(=O)N(CCCC[C@H](NC(=O)N[C@@H](CCC(=O)O)C(=O)O)C(=O)O)Cc1ccc(Br)cc1 | > 100 | > 100 | > 100 | 88 | –
21 | 0.107 | [N-]=[N+]=NCCCNC(=O)[C@@H](Cc1ccc(O)cc1)NC(=O)[C@@H](Cc1ccccc1)NC(=O)CCC(=O)NCCCCCC(=O)N(CCCC[C@H](NC(=O)N[C@@H](CCC(=O)O)C(=O)O)C(=O)O)Cc1cccc(Cl)c1 | – | – | – | – | –
22 | 0.017 | [N-]=[N+]=NCCCNC(=O)[C@H](Cc1ccc(O)cc1)NC(=O)[C@H](Cc1ccccc1)NC(=O)CCC(=O)NCCCCCC(=O)N(CCCC[C@H](NC(=O)N[C@@H](CCC(=O)O)C(=O)O)C(=O)O)Cc1ccc(Br)cc1 | > 100 | > 100 | > 100 | > 100 | –
23 | 0.089 | [N-]=[N+]=NCCCNC(=O)[C@@H](Cc1ccc(O)c(Br)c1)NC(=O)[C@@H](Cc1ccccc1)NC(=O)CCC(=O)NCCCCCC(=O)N(CCCC[C@H](NC(=O)N[C@@H](CCC(=O)O)C(=O)O)C(=O)O)Cc1ccc(Br)cc1 | – | – | – | – | –
24 | 0.046 | [N-]=[N+]=NCCCNC(=O)[C@H](Cc1ccc(O)cc1)NC(=O)[C@H](Cc1ccccc1)NC(=O)CCC(=O)NCCCCCC(=O)N(CCCC[C@H](NC(=O)N[C@@H](CCC(=O)O)C(=O)O)C(=O)O)Cc1ccc(Cl)cc1 | – | – | – | – | –
25 | 3.16 | [N-]=[N+]=NCCCNC(=O)[C@@H](Cc1ccc(O)cc1)NC(=O)[C@@H](Cc1ccccc1)NC(=O)CCC(=O)NCCCCCC(=O)N(CCCC[C@H](NC(=O)N[C@@H](CCC(=O)O)C(=O)O)C(=O)O)Cc1ccc(Br)cc1 | – | – | – | – | –

Reference: ChEMBL document CHEMBL5096171, “Synthesis and Biological Evaluation of PSMA Ligands with Aromatic Residues and Fluorescent Conjugates Based on Them” (J Med Chem, 2021)
